Data on 19 molecules can be found in ChEMBL document CHEMBL4609995, “Rational design, synthesis and biological profiling of new KDM4C inhibitors” (Bioorg Med Chem, 2020).

The target in data set [1] is T1, Lysine-specific demethylase 4C (Homo sapiens) (UniProt Q9H3R0).
T1 sequence (whole entry): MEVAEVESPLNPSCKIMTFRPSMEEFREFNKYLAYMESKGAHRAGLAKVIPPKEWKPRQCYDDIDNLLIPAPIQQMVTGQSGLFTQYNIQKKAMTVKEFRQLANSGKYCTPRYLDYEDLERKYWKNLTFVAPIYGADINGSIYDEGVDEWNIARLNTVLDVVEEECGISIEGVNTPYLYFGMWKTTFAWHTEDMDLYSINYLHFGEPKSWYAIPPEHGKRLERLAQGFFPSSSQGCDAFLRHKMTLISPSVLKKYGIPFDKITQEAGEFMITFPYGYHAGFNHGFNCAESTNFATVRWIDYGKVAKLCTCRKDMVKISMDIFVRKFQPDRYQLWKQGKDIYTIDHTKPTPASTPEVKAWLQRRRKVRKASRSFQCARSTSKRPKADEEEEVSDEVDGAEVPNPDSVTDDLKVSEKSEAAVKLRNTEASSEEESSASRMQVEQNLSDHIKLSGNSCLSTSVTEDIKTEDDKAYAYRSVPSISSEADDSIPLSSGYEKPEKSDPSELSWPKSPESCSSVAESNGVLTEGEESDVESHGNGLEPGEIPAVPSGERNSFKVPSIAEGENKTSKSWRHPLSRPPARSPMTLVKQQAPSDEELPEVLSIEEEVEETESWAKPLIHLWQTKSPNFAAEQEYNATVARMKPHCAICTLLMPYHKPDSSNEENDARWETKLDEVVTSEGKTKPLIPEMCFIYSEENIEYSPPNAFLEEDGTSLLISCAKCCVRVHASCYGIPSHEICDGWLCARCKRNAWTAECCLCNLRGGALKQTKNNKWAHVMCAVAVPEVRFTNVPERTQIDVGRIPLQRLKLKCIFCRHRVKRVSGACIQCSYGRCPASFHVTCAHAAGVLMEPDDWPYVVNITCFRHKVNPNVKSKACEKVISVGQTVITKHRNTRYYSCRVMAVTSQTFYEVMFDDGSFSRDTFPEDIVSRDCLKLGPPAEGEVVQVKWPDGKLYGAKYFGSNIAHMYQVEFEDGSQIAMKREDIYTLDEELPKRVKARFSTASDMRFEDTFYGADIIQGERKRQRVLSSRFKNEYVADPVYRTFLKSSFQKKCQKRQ
Description: Inhibition of KDM4C (unknown origin) at 10 uM using methylated H3 peptide as substrate by chemiluminescence assay relative to control.

A further data set deals with HepG2. Description: Antiproliferative activity against human HepG2 cells assessed as reduction in cell growth measured after 24 hrs by MTS assay. Format: functional, cell-based. The following applies: HepG2, 24 h. Background: Tetrazolium dyes change colour on reduction, which living cells bring about.
The test system of data set [2] is P-gp. Put plainly: Permeability across apical to basolateral side in MDCK2-MDR1 cells at 10 uM incubated for 60 mins in presence 2 uM P-gp inhibitor elacridar by LC-MS/MS analysis. Format: ADME, cell-based, Canis lupus familiaris. The note with it: dog, MDCK-MDR1, with elacridar 2 uM; read-out: permeability.
Data set [3] in a line: Intrinsic clearance in mouse liver microsomes assessed per mg protein at 1 uM measured up to 60 mins in presence or absence of NADPH by LC-MS/MS analysis. Format: ADME, Microsome. The note with it: for microsomal CLint at 1 µM: liver microsomes, read-out: CLH.
A short description of data set [4]: Substrate activity at P-gp in MDCK2-MDR1 cells at 10 uM incubated for 60 mins in presence or absence of 2 uM P-gp inhibitor elacridar by LC-MS/MS analysis. Format: ADME, cell-based, Canis lupus familiaris. The note with it: dog, mdck-mdr1, 1 h.
Data set [5] deals with P-gp. Description: Efflux ratio of permeability from basolateral to apical over apical to basolateral side in MDCK2-MDR1 cells MDCK2-MDR1 cells at 10 uM incubated for 60 mins in presence 2 uM P-gp inhibitor elacridar by LC-MS/MS analysis. Format: ADME, cell-based, Canis lupus familiaris. The following applies: dog, MDCK-MDR1, with elacridar 2 uM.
A further data set deals with A549. Description: Antiproliferative activity against human A549 cells assessed as reduction in cell growth measured after 72 hrs by Alamar blue assay. The note with it: A549, 72 h. Format: functional, cell-based.
In data set [6] the target is T2, Lysine-specific demethylase 4C (Homo sapiens, UniProt Q9H3R0).
T2 sequence (Q9H3R0 whole entry): T1 sequence (whole entry)
Put plainly: Inhibition of KDM4C (unknown origin) using methylated H3 peptide as substrate by chemiluminescence assay.

Data set [7] can be described thus: Electrochemical behavior of the compound assessed as reduction in redox potential. Format: physicochemical.

Each structure is given as a SMILES string.

For the molecule `CN(/N=C/c1ccc(F)cc1)c1cc(=O)n(C)c(=O)[nH]1`, in data set [1], the inhibition is over 70%.
In the case of `COc1ccc(-c2nc3c(=O)n(C)c(=O)nc-3n(C)n2)cc1`, the IC50 worked out at 800 nM with HepG2, 1100 nM in the data set on A549 and 8 nM in [6] (read-out: IC50). The Papp A→B at 1 h, 10 µM with P-gp [2] was 34.5 ×10⁻⁶ cm/s. For the same molecule, the microsomal CLint at 1 µM in data set [3] was under 12.5 µL/min/mg. In addition, the Activity result in data set [4] is given as “Not Active”. Also, the efflux ratio at 1 h, 10 µM in the data set on P-gp [5] is under 2.
In the case of `CN(/N=C/c1ccc(O)cc1)c1cc(=O)n(C)c(=O)[nH]1`, the inhibition in data set [1] lay in the range of 40 to 70%.
`Cn1c(=O)nc2[nH]nc(-c3ccccc3)nc-2c1=O`: the concentration for half-maximal inhibition (IC50) was over 25000 nM in the data set on HepG2, over 30000 nM in the data set with A549 and 7630 nM in data set [6] (read-out: IC50). Further, in the data set with P-gp [2], the Papp A→B at 1 h, 10 µM worked out at 35.5 ×10⁻⁶ cm/s. Further, in [3], the microsomal CLint at 1 µM was under 12.5 µL/min/mg. Besides, in data set [4], the Activity result is reported as “Not Active”. In addition, the efflux ratio at 1 h, 10 µM in the data set on P-gp [5] was under 2.
As for `COC(=O)C1(c2ccc(-c3nc4c(=O)n(C)c(=O)nc-4n(C)n3)cc2)CC1`, the half-inhibitory concentration (IC50) is 1200 nM in the data set with HepG2, 1300 nM in the data set on A549 and “Not Active” in data set [6]. The Papp A→B at 1 h, 10 µM with P-gp [2] turned out to be 24.9 ×10⁻⁶ cm/s. Moreover, in [3], the microsomal CLint at 1 µM is under 12.5 µL/min/mg. In data set [4], the Activity entry is “Not Active”. For the same molecule, the efflux ratio at 1 h, 10 µM in the data set with P-gp [5] is under 2.
Take `Cn1nc(Cc2ccccc2)nc2c(=O)n(C)c(=O)nc1-2`: the IC50 in the data set on HepG2 was 5100 nM; in the data set on A549 it was over 30000 nM; in data set [6] (read-out: IC50), 29 nM. Besides, the Papp A→B at 1 h, 10 µM in the data set on P-gp [2] is 25.3 ×10⁻⁶ cm/s. For the same molecule, the microsomal CLint at 1 µM in data set [3] was under 12.5 µL/min/mg. The Activity entry in [4] was “Not Active”. Besides, in the data set with P-gp [5], the efflux ratio at 1 h, 10 µM was under 2.
In the case of `Cn1nc(-c2ccccc2)nc2n(C)c(=O)nc1-2`, the concentration for half-maximal inhibition (IC50) with HepG2 is over 25000 nM; in the data set with A549, over 30000 nM; in [6] (read-out: IC50) it was 12700 nM. In addition, the Papp A→B at 1 h, 10 µM with P-gp [2] was found to be 40.6 ×10⁻⁶ cm/s. The microsomal CLint at 1 µM in data set [3] was determined as 13.1 µL/min/mg. In addition, the Activity result in data set [4] is recorded as “Not Active”. Further, in the data set with P-gp [5], the efflux ratio at 1 h, 10 µM was under 2.
Take `Cn1c(=O)[nH]c2ccc(-c3ccccc3)cc2c1=O`: the IC50 in the data set on HepG2 was over 25000 nM; with A549 it was over 30000 nM; in data set [6] (read-out: IC50), over 10000 nM. Also, the Papp A→B at 1 h, 10 µM in the data set with P-gp [2] turned out to be 27.3 ×10⁻⁶ cm/s. Moreover, the microsomal CLint at 1 µM in data set [3] was determined as 229 µL/min/mg. Also, in [4], the Activity entry was “Not Active”. Also, the efflux ratio at 1 h, 10 µM in the data set with P-gp [5] is under 2.
Take `Cn1nc(-c2ccn(C)c(=O)c2)nc2c(=O)n(C)c(=O)nc1-2`: the IC50 in the data set with HepG2 was 4500 nM; with A549 it was 8800 nM; in data set [6], “Not Active”. The Papp A→B at 1 h, 10 µM in the data set on P-gp [2] stood at 1.1 ×10⁻⁶ cm/s. The molecule also yielded a CLint in [3] (microsomes, 1 h, 1 µM) of 71.8 µL/min/mg. The outcome in data set [4] was Active. The efflux ratio at 1 h, 10 µM with P-gp [5] is under 2.
As for `CN(C)c1ccccc1/C=N/N(C)c1cc(=O)n(C)c(=O)[nH]1`, in [1], the inhibition was 40 to 70%.
Regarding `Cn1nc(-c2ccncc2)nc2c(=O)n(C)c(=O)nc1-2`, the IC50 with HepG2 was determined as 1800 nM; with A549, 4300 nM; in [6] (read-out: IC50), 19 nM. For the same molecule, the Papp A→B at 1 h, 10 µM in the data set on P-gp [2] is 13.4 ×10⁻⁶ cm/s. Moreover, the microsomal CLint at 1 µM in data set [3] worked out at 11.6 µL/min/mg. Besides, the Activity result in data set [4] is recorded as “Not Active”. The efflux ratio at 1 h, 10 µM with P-gp [5] was under 2.
Consider `Cn1nc(-c2ccc(C#N)cc2)nc2c(=O)n(C)c(=O)nc1-2`, for which the IC50 in the data set with HepG2 was found to be 800 nM; with A549, 1900 nM; in data set [6] (read-out: IC50), 11 nM. Further, in the data set with P-gp [2], the Papp A→B at 1 h, 10 µM amounted to 26.8 ×10⁻⁶ cm/s. For the same molecule, the microsomal CLint at 1 µM in [3] was under 12.5 µL/min/mg. Besides, the Activity entry in data set [4] is reported as “Not Active”. Also, the efflux ratio at 1 h, 10 µM in the data set with P-gp [5] was under 2.
The molecule `COc1ccc(/C=N/N(C)c2cc(=O)n(C)c(=O)[nH]2)cc1` had an inhibition in [1] of 40 to 70%.
On to `CN(C)c1ccccc1-c1nc2c(=O)n(C)c(=O)nc-2n(C)n1`, for which the IC50 stood at 2100 nM in the data set on HepG2, 5700 nM in the data set with A549 and 16 nM in data set [6] (read-out: IC50). Moreover, the Papp A→B at 1 h, 10 µM with P-gp [2] was found to be 18 ×10⁻⁶ cm/s. Moreover, in data set [3], the microsomal CLint at 1 µM was under 12.5 µL/min/mg. Also, the Activity entry in data set [4] was “Not Active”. The efflux ratio at 1 h, 10 µM with P-gp [5] is under 2.
`CN(/N=C/c1ccccc1)c1cc(=O)n(C)c(=O)[nH]1` returned an inhibition in data set [1] of over 70%. For the same molecule, the result in data set [7] was Active.
Consider `Cn1nc(-c2ccc(O)cc2)nc2c(=O)n(C)c(=O)nc1-2`, for which the half-maximal inhibitory concentration (IC50) was 1100 nM in the data set with HepG2, 5800 nM with A549 and 242 nM in data set [6] (read-out: IC50). The Papp A→B at 1 h, 10 µM in the data set with P-gp [2] stood at 13.2 ×10⁻⁶ cm/s. In addition, the microsomal CLint at 1 µM in [3] is under 12.5 µL/min/mg. The Activity result in [4] is “Not Active”. Further, in the data set on P-gp [5], the efflux ratio at 1 h, 10 µM was under 2.
On to `Cn1nc(-c2ccc(F)cc2)nc2c(=O)n(C)c(=O)nc1-2`, for which the concentration for half-maximal inhibition (IC50) is 820 nM in the data set on HepG2, 1600 nM with A549 and 81 nM in data set [6] (read-out: IC50). The Papp A→B at 1 h, 10 µM in the data set on P-gp [2] was determined as 30.6 ×10⁻⁶ cm/s. For the same molecule, the microsomal CLint at 1 µM in [3] is under 12.5 µL/min/mg. The Activity result in data set [4] is listed as “Not Active”. Moreover, the efflux ratio at 1 h, 10 µM in the data set on P-gp [5] is under 2.
As to `Cn1nc(-c2ccc(S(N)(=O)=O)cc2)nc2c(=O)n(C)c(=O)nc1-2`, the values for the IC50 (in the data set on HepG2; in the data set on A549; in data set [6] (read-out: IC50)) were 5600 nM, over 30000 nM and 42 nM, respectively. In addition, in the data set with P-gp [2], the Papp A→B at 1 h, 10 µM stood at 0.8 ×10⁻⁶ cm/s. Further, the microsomal CLint at 1 µM in data set [3] was under 12.5 µL/min/mg. The Activity entry in data set [4] is given as “Not Active”. Also, the efflux ratio at 1 h, 10 µM in the data set with P-gp [5] is under 2.
Consider `Cn1nc(-c2ccccc2)nc2c(=O)n(C)c(=O)nc1-2`, for which the IC50 in the data set with HepG2 was 870 nM; in the data set with A549, 1100 nM; in data set [6] (read-out: IC50), 130 nM. Moreover, the Papp A→B at 1 h, 10 µM in the data set with P-gp [2] was determined as 34.7 ×10⁻⁶ cm/s. Besides, the microsomal CLint at 1 µM in [3] was under 12.5 µL/min/mg. The Activity result in [4] is “Not Active”. Besides, the efflux ratio at 1 h, 10 µM in the data set on P-gp [5] was under 2.

One may read the inhibition as the share of the control response that was lost under treatment. Low readings indicate a response near the control, high ones a response far below the control. What is called IC50 is the concentration that inhibits the measured activity by half. The efflux ratio is the permeability from basolateral to apical divided by that in the opposite direction, in the common usage.
